Measured values taken from patent US10450318B2, “CXCR4 receptor antagonists” (BRISTOL-MYERS SQUIBB COMPANY, priority 2015, dated 2019).

Each molecule was assayed against T1, CXCR4 receptors (Homo sapiens, UniProt P61073) (assay: CXCR4-CEM calcium flux assay, antagonist mode (inhibition of SDF-1α-induced calcium flux)). Settings: inhibition of calcium flux induced by 4 nM SDF-1α in CCRF-CEM cells.
T1 construct: expressing endogenous CXCR4 receptors; endogenous in cells; host or cells: CCRF-CEM (human T lymphoblast cells)
T1 sequence (P61073 whole entry): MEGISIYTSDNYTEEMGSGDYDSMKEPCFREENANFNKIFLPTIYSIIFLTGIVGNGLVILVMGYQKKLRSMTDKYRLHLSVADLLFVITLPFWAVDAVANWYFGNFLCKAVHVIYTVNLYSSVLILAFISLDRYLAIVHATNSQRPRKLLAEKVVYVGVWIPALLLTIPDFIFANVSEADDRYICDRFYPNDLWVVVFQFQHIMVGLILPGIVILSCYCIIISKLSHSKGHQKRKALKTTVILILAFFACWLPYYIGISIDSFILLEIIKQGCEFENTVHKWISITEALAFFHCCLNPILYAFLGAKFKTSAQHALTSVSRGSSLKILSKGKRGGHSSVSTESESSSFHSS
Assay type: cell-based
Experimental: Exemplary compounds of the invention were tested for their ability to induce or inhibit calcium flux in CCRF-CEM cells. […] CXCR4-CEM Calcium Flux Assays. […] The cells were then equilibrated to room temperature for 30 minutes before assay. […] The serially diluted compounds were diluted to working concentrations with the same assay buffer to 0.5% DMSO. […] Activity of the compounds to induce calcium flux was monitored by FDSS in the “agonist mode” for 90 sec. For “antagonist mode” assessment, the cells are subsequently incubated for 25 min at room temperature. SDF-1α (R&D System Cat#350-NS/CF) was then added at a final concentration of 4 nM to stimulate the cells. Inhibition of SDF-1α-induced calcium flux was monitored by FDSS6000 for 90 sec. […] After correcting for background, EC50 values were determined. […] Inhibition data for the test compound over a range of concentrations was plotted as percentage inhibition of the test compound as compared to an internal control compound.

SMILES	IC50
CN(Cc1cn2c(N3CCN(C(=O)OC(C)(C)C)CC3)nccc2n1)[C@H]1CCCc2cccnc21 [Example 3, (S)-tert-Butyl 4-(2-((methyl(5,6,7,8-tetrahydroquinolin-8-yl)amino)methyl)imidazo[1,2-c]pyrimidin-5-yl)piperazine-1-carboxylate]	> 30000 nM
CN1CCN(c2nccc3nc(CN(C)[C@H]4CCCc5cccnc54)cn23)CC1 [Example 4, (S)—N-Methyl-N-((5-(4-methylpiperazin-1-yl)imidazo[1,2-c]pyrimidin-2-yl)methyl)-5,6,7,8-tetrahydroquinolin-8-amine]	2.5 nM
CN(Cc1cn2c(N3CCNCC3)nccc2n1)[C@H]1CCCc2cccnc21 [Example 5, (S)—N-Methyl-N-((5-(piperazin-1-yl)imidazo[1,2-c]pyrimidin-2-yl)methyl)-5,6,7,8-tetrahydroquinolin-8-amine]	8.1 nM
CN(Cc1nc2ccnc(N3CCNCC3)n2c1CO)[C@H]1CCCc2cccnc21 [Example 6, (S)-(2-((Methyl(5,6,7,8-tetrahydroquinolin-8-yl)amino)methyl)-5-(piperazin-1-yl)imidazo[1,2-c]pyrimidin-3-yl)methanol]	3.8 nM
CN1CCN(c2nccc3nc(CN(C)[C@H]4CCCc5cccnc54)c(CO)n23)CC1 [Example 7, (S)-(2-((Methyl(5,6,7,8-tetrahydroquinolin-8-yl)amino)methyl)-5-(4-methylpiperazin-1-yl)imidazo[1,2-c]pyrimidin-3-yl)methanol]	2.4 nM
CSc1nccc2nc(CN(C)[C@H]3CCCc4cccnc43)cn12 [Example 8, (S)—N-Methyl-N-((5-(methylthio)imidazo[1,2-c]pyrimidin-2-yl)methyl)-5,6,7,8-tetrahydroquinolin-8-amine]	89 nM
CN(Cc1cn2c(N3CCOCC3)nccc2n1)[C@H]1CCCc2cccnc21 [Example 9, (S)—N-Methyl-N-((5-morpholinoimidazo[1,2-c]pyrimidin-2-yl)methyl)-5,6,7,8-tetrahydroquinolin-8-amine]	25500 nM
CC(=O)N1CCN(c2nccc3nc(CN(C)[C@H]4CCCc5cccnc54)cn23)CC1 [Example 10, (S)-1-(4-(2-((Methyl(5,6,7,8-tetrahydroquinolin-8-yl)amino)methyl)imidazo[1,2-c]pyrimidin-5-yl)piperazin-1-yl)ethanone]	8600 nM
CN(Cc1cn2c(N3CCN(CCO)CC3)nccc2n1)[C@H]1CCCc2cccnc21 [Example 11, (S)-2-(4-(2-((Methyl(5,6,7,8-tetrahydroquinolin-8-yl)amino)methyl)imidazo[1,2-c]pyrimidin-5-yl)piperazin-1-yl)ethanol]	13 nM
CN(Cc1cn2c(N3CCN(CCF)CC3)nccc2n1)[C@H]1CCCc2cccnc21 [Example 12, (S)—N-((5-(4-(2-Fluoroethyl)piperazin-1-yl)imidazo[1,2-c]pyrimidin-2-yl)methyl)-N-methyl-5,6,7,8-tetrahydroquinolin-8-amine]	54 nM
COC(=O)N1CCN(c2nccc3nc(CN(C)[C@H]4CCCc5cccnc54)cn23)CC1 [Example 13, (S)-Methyl 4-(2-((methyl(5,6,7,8-tetrahydroquinolin-8-yl)amino)methyl)imidazo[1,2-c]pyrimidin-5-yl)piperazine-1-carboxylate]	5670 nM
CCNC(=O)N1CCN(c2nccc3nc(CN(C)[C@H]4CCCc5cccnc54)cn23)CC1 [Example 14, (S)—N-ethyl-4-(2-((methyl(5,6,7,8-tetrahydroquinolin-8-yl)amino)methyl)imidazo[1,2-c]pyrimidin-5-yl)piperazine-1-carboxamide]	1230 nM
CN(Cc1cn2c(N3CCN(S(C)(=O)=O)CC3)nccc2n1)[C@H]1CCCc2cccnc21 [Example 15, (S)—N-Methyl-N-((5-(4-(methylsulfonyl)piperazin-1-yl)imidazo[1,2-c]pyrimidin-2-yl)methyl)-5,6,7,8-tetrahydroquinolin-8-amine]	750 nM
CN(Cc1cn2c(N3CCN(CCN)CC3)nccc2n1)[C@H]1CCCc2cccnc21 [Example 16, (S)—N-((5-(4-(2-Aminoethyl)piperazin-1-yl)imidazo[1,2-c]pyrimidin-2-yl)methyl)-N-methyl-5,6,7,8-tetrahydroquinolin-8-amine]	540 nM
[2H]C([2H])([2H])N1CCN(c2nccc3nc(CN(C)[C@H]4CCCc5cccnc54)cn23)CC1 [Example 17, (S)—N-Methyl-N-((5-(4-(methyl-d3)piperazin-1-yl)imidazo[1,2-c]pyrimidin-2-yl)methyl)-5,6,7,8-tetrahydroquinolin-8-amine]	3.7 nM
CN(Cc1cn2c(N3CCN(CCc4ccccc4)CC3)nccc2n1)[C@H]1CCCc2cccnc21 [Example 18, (S)-N-methyl-N-({5-[4-(2-phenylethyl)piperazin-1-yl]imidazo[1,2-c]pyrimidin-2-yl}methyl)-5,6,7,8-tetrahydroquinolin-8-amine]	14 nM
CC(C)CCN1CCN(c2nccc3nc(CN(C)[C@H]4CCCc5cccnc54)cn23)CC1 [Example 19, (S)-N-methyl-N-({5-[4-(3-methylbutyl)piperazin-1-yl]imidazo[1,2-c]pyrimidin-2-yl}methyl)-5,6,7,8-tetrahydroquinolin-8-amine]	14 nM
CC(C)N1CCN(c2nccc3nc(CN(C)[C@H]4CCCc5cccnc54)cn23)CC1 [Example 20, (S)-N-methyl-N-({5-[4-(propan-2-yl)piperazin-1-yl]imidazo[1,2-c]pyrimidin-2-yl}methyl)-5,6,7,8-tetrahydroquinolin-8-amine]	9.6 nM
CN(Cc1cn2c(N3CCN(CC4CC4)CC3)nccc2n1)[C@H]1CCCc2cccnc21 [Example 21, (8S)-N-({5-[4-(cyclopropylmethyl)piperazin-1-yl]imidazo[1,2-c]pyrimidin-2-yl}methyl)-N-methyl-5,6,7,8-tetrahydroquinolin-8-amine]	17 nM

Continued, values first:

IC50	SMILES
11 nM	CN(Cc1cn2c(N3CCNC(c4ccccc4)C3)nccc2n1)[C@H]1CCCc2cccnc21 (single isomer, unassigned) [Example 78]
56 nM	CN(Cc1cn2c(N3CCNC(c4ccccc4)C3)nccc2n1)[C@H]1CCCc2cccnc21 (single isomer, unassigned) [Example 79]
> 30000 nM	CN(Cc1cn2c(N3CCN4CCOCC4C3)nccc2n1)[C@H]1CCCc2cccnc21 (single isomer, unassigned) [Example 91]
290 nM	CN(Cc1cn2c(N3CCN4CCOCC4C3)nccc2n1)[C@H]1CCCc2cccnc21 (single isomer, unassigned) [Example 92]
24 nM	CN(Cc1cn2c(N3CC4CCCNC4C3)nccc2n1)[C@H]1CCCc2cccnc21 (single isomer, unassigned) [Example 95]
220 nM	CN(Cc1cn2c(N3CC4CCCNC4C3)nccc2n1)[C@H]1CCCc2cccnc21 (single isomer, unassigned) [Example 96]
42 nM	CC(C)CN1CCN(c2nccc3nc(CN(C)[C@H]4CCCc5cccnc54)cn23)CC1 [Example 22, (S)-N-methyl-N-({5-[4-(2-methylpropyl)piperazin-1-yl]imidazo[1,2-c]pyrimidin-2-yl}methyl)-5,6,7,8-tetrahydroquinolin-8-amine]
770 nM	CN(Cc1cn2c(N3CCN(C4CCCCC4)CC3)nccc2n1)[C@H]1CCCc2cccnc21 [Example 23, (S)-N-{[5-(4-cyclohexylpiperazin-1-yl)imidazo[1,2-c]pyrimidin-2-yl]methyl}-N-methyl-5,6,7,8-tetrahydroquinolin-8-amine]
11 nM	CN(Cc1cn2c(N3CCN(Cc4ccc(O)cc4)CC3)nccc2n1)[C@H]1CCCc2cccnc21 [Example 24, 4-({4-[2-({methyl[(S)-5,6,7,8-tetrahydroquinolin-8-yl]amino}methyl)imidazo[1,2-c]pyrimidin-5-yl]piperazin-1-yl}methyl)phenol]
12 nM	CN(Cc1cn2c(N3CCN(Cc4cccc(Cl)c4)CC3)nccc2n1)[C@H]1CCCc2cccnc21 [Example 25, (S)-N-[(5-{4-[(3-chlorophenyl)methyl]piperazin-1-yl}imidazo[1,2-c]pyrimidin-2-yl)methyl]-N-methyl-5,6,7,8-tetrahydroquinolin-8-amine]
14 nM	CN(Cc1cn2c(N3CCN(Cc4cccs4)CC3)nccc2n1)[C@H]1CCCc2cccnc21 [Example 26, (S)-N-methyl-N-({5-[4-(thiophen-2-ylmethyl)piperazin-1-yl]imidazo[1,2-c]pyrimidin-2-yl}methyl)-5,6,7,8-tetrahydroquinolin-8-amine]
75 nM	CN(Cc1cn2c(N3CCN(Cc4cncn4C)CC3)nccc2n1)[C@H]1CCCc2cccnc21 [Example 27, (S)-N-methyl-N-[(5-{4-[(1-methyl-1H-imidazol-5-yl)methyl]piperazin-1-yl}imidazo[1,2-c]pyrimidin-2-yl)methyl]-5,6,7,8-tetrahydroquinolin-8-amine]
11 nM	CN(Cc1cn2c(N3CCN(Cc4cccnc4)CC3)nccc2n1)[C@H]1CCCc2cccnc21 [Example 28]
77 nM	CN(Cc1cn2c(N3CCN(Cc4ccncc4)CC3)nccc2n1)[C@H]1CCCc2cccnc21 [Example 29, (S)-N-methyl-N-({5-[4-(pyridin-4-ylmethyl)piperazin-1-yl]imidazo[1,2-c]pyrimidin-2-yl}methyl)-5,6,7,8-tetrahydroquinolin-8-amine]
190 nM	CN(Cc1cn2c(N3CCN(C4CCC4)CC3)nccc2n1)[C@H]1CCCc2cccnc21 [Example 30, (S)-N-{[5-(4-cyclobutylpiperazin-1-yl)imidazo[1,2-c]pyrimidin-2-yl]methyl}-N-methyl-5,6,7,8-tetrahydroquinolin-8-amine]
